Where “and” joins values, the source holds several entries; their conditions need not be identical. Equal values may be shown once. Where a name gives a salt, the structure may show the parent alone.
Legend:
[1] = system: thymus cells of normal BALB/c mice (PHA and IL-1 induced lymphocyte proliferation); test: comitogen-induced thymocyte proliferation procedure (LAF); assay type: cell-based; conditions: thymocytes cultured 72 hours with PHA and IL-1; tritiated thymidine last six hours; maleate salt; read-out: LAF IC50
Method: (§1) Immunosuppressive activity for representative compounds of this invention was evaluated in an in vitro standard pharmacological test procedure to measure lymphocyte proliferation (LAF) and in three in vivo standard pharmacological test procedures. The pinch skin graft test procedure measures the immunosuppressive activity of the compound tested as well as the ability of the compound tested to inhibit or treat transplant rejection. The adjuvant arthritis standard pharmacological test procedure, which measures the ability of the compound tested to inhibit immune mediated inflammation. The adjuvant arthritis test procedure is a standard pharmacological test procedure for rheumatoid arthritis. Representative compounds of this invention were also evaluated in a heart allograft standard pharmacological test procedure which measures immunosuppressive activity of the compound tested as well as the ability of the compound tested to inhibit or treat transplant rejection. The procedures for these standard pharmacological test procedures are provided below.
The comitogen-induced thymocyte proliferation procedure (LAF) was used as an in vitro measure of the immunosuppressive effects of representative compounds. Briefly, cells from the thymus of normal BALB/c mice are cultured for 72 hours with PHA and IL-1 and pulsed with tritiated thymidine during the last six hours. Cells are cultured with and without various concentrations of rapamycin, cyclosporin A, or test compound. Cells are harvested and incorporated radioactivity is determined. Inhibition of lymphoproliferation is assessed as percent change in counts per minute from non-drug treated controls. For each compound evaluated, rapamycin was also evaluated for the purpose of comparison. An IC50 was obtained for each test compound as well as for rapamycin. […] The results obtained are provided as an IC50.

[2] = system: pinch skin graft from male BALB/c donors transplanted to male C3 H(H-2K) recipients; test: pinch skin graft survival test procedure; assay type: in vivo, C3 H(H-2K) recipients (mice); conditions: 4 mg/kg, intraperitoneally or orally; untreated grafts rejected within 6-7 days; maleate salt
Method: Representative compounds of this invention were also evaluated in an in vivo test procedure designed to determine the survival time of pinch skin graft from male BALB/c donors transplanted to male C3 H(H-2K) recipients. […] Briefly, a pinch skin graft from the donor was grafted on the dorsum of the recipient as a allograft, and an isograft was used as control in the same region. The recipients were treated with either varying concentrations of test compounds intraperitoneally or orally. Rapamycin was used as a test control. Untreated recipients serve as rejection control. The graft was monitored daily and observations were recorded until the graft became dry and formed a blackened scab. This was considered as the rejection day. The mean graft survival time (number of days±S.D.) of the drug treatment group was compared with the control group. […] Results are expressed as the mean survival time in days. Untreated (control) pinch skin grafts are usually rejected within 6-7 days. Compounds were tested using a dose of 4 mg/kg.

[3] = system: heart allograft from BN rat neonate donors in Lewis rats; test: heterotropic heart allograft standard pharmacological test procedure; assay type: in vivo; conditions: 300 μg/day, i.p.; untreated allografts rejected in about 9-10 days
Method: as §1
The ability of the compounds of this invention to induce immunosuppression and inhibit or treat transplantation rejection was evaluated in a heterotropic heart allograft standard pharmacological test procedure that emulates transplantation rejection that occurs in humans. The following briefly describes the procedure that was used. […]

[4] = system: Freud's Complete Adjuvant induced arthritis in rats; test: adjuvant arthritis standard pharmacological test procedure; assay type: in vivo, male inbread Wistar Lewis rats; conditions: 5 mg/kg oral, 7 doses, day 16; more negative = more potent
Method: as §1, with “The procedures for these standard pharmacological test procedures are provided below.” left out
The adjuvant arthritis standard pharmacological test procedure measures the ability of test compounds to prevent immune mediated inflammation and inhibit or treat rheumatoid arthritis. […] Both hind paws are measured on days 16, 23, and 30. The difference in paw volume (mL) from day 16 to day 0 is determined and a percent change from control is obtained. […]

With CO[C@H]1C[C@@H]2CC[C@@H](C)[C@@](O)(O2)C(=O)C(=O)N2CCCC[C@H]2C(=O)O[C@H]([C@H](C)C[C@@H]2CC[C@@H](OC(=O)C(C)(C)N)[C@H](OC)C2)CC(=O)[C@H](C)/C=C(\C)[C@@H](O)[C@@H](OC)C(=O)[C@H](C)C[C@H](C)/C=C/C=C/C=C/1C [Example 6, Rapamycin 42-ester with 2-amino-2-methylpropionic acid maleate salt] the IC50 [1] was 5.3 nM and 8.4 nM, the “Skin graft survival time (mean survival time ± S.D.)” value [2] was 12.0 ± 0.0 days and 11.0 ± 0.9 days and the “Heart allograft survival time (mean)” value [3] was 19.11 days. The “Percent change in adjuvant arthritis versus control (uninjected paw)” value [4] was -73%.

Reference: patent US5385910A, “Gem-distributed esters of rapamycin” (American Home Products Corporation, priority 1993, dated 1995)
